Laboratory results as given in patent US9809583B2 (priority 2014, dated 2017).
Like-named read-outs stand apart in the source and are kept apart here.

What was measured:
androgen receptor (hAR) [1] = molecular target: T1, androgen receptor (hAR) (Homo sapiens (Human), UniProt P10275); assay: Test of transcriptional activity (hAR / ARE-Luc dual-luciferase assay in CHO cells); assay type: cell-based; details: EC50 [nM] (mean ± SE), CHO cells with hAR and ARE-Luc, 24 hours; 10 nM DHT = 100%
Summary of the method: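 CHO cells cultured 24 h, then transfected with hAR and ARE-Luc plasmids. Transfected cells treated with 0.1˜10,000 nM compound for 24 h; transcriptional activity read by dual-luciferase reporter.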

androgen receptor (hAR) [2] = molecular target: T1, androgen receptor (hAR); assay: biochemical; assay type: binding
Procedure: In order to examine binding ability of the agonists of the present invention to androgen receptors, the following in-vitro experiment was performed. African green monkey kidney fibroblast-like cell line, COS-7 (ATCC, #CRL-1651) was seeded in a 48-well plate at a density of 2.5×10^4 cells/well, and cultured for 24 hours. Then, a plasmid hAR-mixed medium was added thereto. […] Thereafter, the cells were lysed and the amount of [3H]MIB bound to the intracellular androgen receptors was measured using a radiation dosimeter.

[3] = 1 nM [3H]MIB, hAR-transfected COS-7 cells, 2 hours, read-out: IC50 [nM] (mean ± SE)

T1 sequence (P10275 whole entry): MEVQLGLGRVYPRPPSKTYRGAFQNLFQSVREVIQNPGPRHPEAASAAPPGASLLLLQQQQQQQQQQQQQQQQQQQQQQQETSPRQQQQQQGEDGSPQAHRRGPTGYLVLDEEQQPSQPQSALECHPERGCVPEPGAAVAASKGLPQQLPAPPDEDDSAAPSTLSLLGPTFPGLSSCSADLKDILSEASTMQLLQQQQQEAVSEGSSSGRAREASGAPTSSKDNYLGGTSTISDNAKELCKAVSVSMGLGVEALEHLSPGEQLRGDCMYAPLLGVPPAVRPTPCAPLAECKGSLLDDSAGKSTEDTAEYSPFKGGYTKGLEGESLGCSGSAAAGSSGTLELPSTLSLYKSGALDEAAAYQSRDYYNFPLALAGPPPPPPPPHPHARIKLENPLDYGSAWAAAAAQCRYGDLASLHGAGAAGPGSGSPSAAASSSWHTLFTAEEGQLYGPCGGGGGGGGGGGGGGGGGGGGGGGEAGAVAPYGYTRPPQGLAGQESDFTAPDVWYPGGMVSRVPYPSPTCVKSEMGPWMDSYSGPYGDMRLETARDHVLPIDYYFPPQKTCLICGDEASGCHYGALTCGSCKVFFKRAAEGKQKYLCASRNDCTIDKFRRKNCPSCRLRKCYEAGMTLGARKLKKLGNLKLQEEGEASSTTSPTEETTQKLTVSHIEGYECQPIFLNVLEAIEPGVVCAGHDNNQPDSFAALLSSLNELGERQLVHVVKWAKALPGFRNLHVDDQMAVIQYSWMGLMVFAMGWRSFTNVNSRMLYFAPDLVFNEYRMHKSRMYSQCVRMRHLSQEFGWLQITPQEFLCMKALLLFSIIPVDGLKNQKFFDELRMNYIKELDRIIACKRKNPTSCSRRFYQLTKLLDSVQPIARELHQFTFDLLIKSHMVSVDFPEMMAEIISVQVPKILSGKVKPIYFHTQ

| Structure (SMILES) | EC50 (androgen receptor (hAR) [1]) [nM] | IC50 (androgen receptor (hAR) [2]; [3]) [nM] | IC50 (androgen receptor (hAR) [2]) [nM] |
| --- | --- | --- | --- |
| N#Cc1ccc(COC[C@@H]2CN(c3ccc(C#N)c(C(F)(F)F)c3)[C@@H](C(F)(F)F)O2)cc1 [Example 2, 4-((2R,5S)-5-(((4-cyanobenzyl)oxy)methyl)-2-(trifluoromethyl)oxazolidin-3-yl)-2-(trifluoromethyl)benzonitrile] | 133 | 23.9 | – |
| N#Cc1ccc(OC[C@@H]2CN(c3ccc(C#N)c(C(F)(F)F)c3)[C@H](C(F)(F)F)O2)cc1 [Example 6, 4-((2S,5S)-5-((4-cyanophenoxy)methyl)-2-(trifluoromethyl)oxazolidin-3-yl)-2-(trifluoromethyl)benzonitrile] | 4.1 | 11 | – |
| COC(=O)c1ccc(OC[C@@H]2CN(c3ccc(C#N)c(C(F)(F)F)c3)[C@@H](C(F)(F)F)O2)cc1 [Example 7, methyl 4-(((2R,5S)-3-(4-cyano-3-(trifluoromethyl)phenyl)-2-(trifluoromethyl)oxazolidin-5-yl)methoxy)benzoate] | 13.1 | 15.7 | – |
| N#Cc1ccc(N2C[C@@H](COc3ccc([N+](=O)[O-])cc3)O[C@@H]2C(F)(F)F)cc1C(F)(F)F [Example 8, 4-((2R,5S)-5-((4-nitrophenoxy)methyl)-2-(trifluoromethyl)oxazolidin-3-yl)-2-(trifluoromethyl)benzonitrile] | 20 | 13.7 | – |
| N#Cc1ccc(N2C[C@@H](COc3ccc(C(=O)O)cc3)O[C@@H]2C(F)(F)F)cc1C(F)(F)F [Example 9, 4-(((2R,5S)-3-(4-cyano-3-(trifluoromethyl)phenyl)-2-(trifluoromethyl)oxazolidin-5-yl)methoxy)benzoic acid] | – | – | 367 |
| N#Cc1ccc(N2C[C@@H](COc3ccc(F)c(F)c3)O[C@@H]2C(F)(F)F)cc1C(F)(F)F [Example 10, 4-((2R,5S)-5-((3,4-difluorophenoxy)methyl)-2-(trifluoromethyl)oxazolidin-3-yl)-2-(trifluoromethyl)benzonitrile] | 11.1 | 6.3 | – |
| N#Cc1ccc(OC[C@@H]2CN(c3ccc(C#N)c(C(F)(F)F)c3)[C@@H](C(F)(F)F)O2)c(F)c1 [Example 11, 4-((2R,5S)-5-((4-cyano-2-fluorophenoxy)methyl)-2-(trifluoromethyl)oxazolidin-3-yl)-2-(trifluoromethyl)benzonitrile] | 4.5 | 10.5 | – |
| N#Cc1ccc(N2C[C@@H](COc3ccc([N+](=O)[O-])cc3Cl)O[C@@H]2C(F)(F)F)cc1C(F)(F)F [Example 12, 4-((2R,5S)-5-((2-chloro-4-nitrophenoxy)methyl)-2-(trifluoromethyl)oxazolidin-3-yl)-2-(trifluoromethyl)benzonitrile] | – | 145 | – |
| N#Cc1ccc(N2C[C@@H](COc3cc(F)c(F)cc3F)O[C@@H]2C(F)(F)F)cc1C(F)(F)F [Example 13, 2-(trifluoromethyl)-4-((2R,5S)-2-(trifluoromethyl)-5-((2,4,5-trifluorophenoxy)methyl)oxazolidin-3-yl)benzonitrile] | 9.9 | 14.5 | – |
| N#Cc1ccc(OC[C@H]2CN(c3ccc(C#N)c(C(F)(F)F)c3)[C@H](C(F)(F)F)O2)cc1 [Example 20, 4-((2S,5R)-5-((4-cyanophenoxy)methyl)-2-(trifluoromethyl)oxazolidin-3-yl)-2-(trifluoromethyl)benzonitrile] | – | 1080 | – |
| N#Cc1ccc(N2C[C@H]([C@@H](O)C(F)(F)F)O[C@H]2C(F)(F)F)cc1C(F)(F)F [Example 21, 4-((2S,5R)-5-((R)-2,2,2-trifluoro-1-hydroxyethyl)-2-(trifluoromethyl)oxazolidin-3-yl)-2-(trifluoromethyl)benzonitrile] | – | 1060 | – |
| N#Cc1ccc(N2C[C@H]([C@H](O)C(F)(F)F)O[C@H]2C(F)(F)F)cc1C(F)(F)F [Example 22, 4-((2S,5R)-5-((S)-2,2,2-trifluoro-1-hydroxyethyl)-2-(trifluoromethyl)oxazolidin-3-yl)-2-(trifluoromethyl)benzonitrile] | – | 1870 | – |
| N#Cc1ccc(N2C[C@@H]([C@@H](O)C(F)(F)F)O[C@@H]2C(F)(F)F)cc1C(F)(F)F [Example 23, 4-((2R,5S)-5-((R)-2,2,2-trifluoro-1-hydroxyethyl)-2-(trifluoromethyl)oxazolidin-3-yl)-2-(trifluoromethyl)benzonitrile] | – | 44.3 | – |
| N#Cc1ccc(N2C[C@@H]([C@H](O)C(F)(F)F)O[C@@H]2C(F)(F)F)cc1C(F)(F)F [Example 24, 4-((2R,5S)-5-((S)-2,2,2-trifluoro-1-hydroxyethyl)-2-(trifluoromethyl)oxazolidin-3-yl)-2-(trifluoromethyl)benzonitrile] | – | 141 | – |
| N#Cc1ccc(N2C[C@@H](CSc3ccc(Cl)cc3)O[C@@H]2C(F)(F)F)cc1C(F)(F)F [Example 26, 4-((2R,5S)-5-(((4-chlorophenyl)thio)methyl)-2-(trifluoromethyl)oxazolidin-3-yl)-2-(trifluoromethyl)benzonitrile] | 8.6 | 43.6 | – |
| COc1ccc(OC[C@@H]2CN(c3ccc(C#N)c(C(F)(F)F)c3)[C@@H](C(F)(F)F)O2)cc1 [Example 27, 4-((2R,5S)-5-((4-methoxyphenoxy)methyl)-2-(trifluoromethyl)oxazolidin-3-yl)-2-(trifluoromethyl)benzonitrile] | – | 22.4 | – |
| COc1cccc(OC[C@@H]2CN(c3ccc(C#N)c(C(F)(F)F)c3)[C@@H](C(F)(F)F)O2)c1 [Example 28, 4-((2R,5S)-5-((3-methoxyphenoxy)methyl)-2-(trifluoromethyl)oxazolidin-3-yl)-2-(trifluoromethyl)benzonitrile] | – | 77.2 | – |
| N#Cc1ccc(SC[C@@H]2CN(c3ccc(C#N)c(C(F)(F)F)c3)[C@@H](C(F)(F)F)O2)cc1 [Example 29, 4-((2R,5S)-5-(((4-cyanophenyl)thio)methyl)-2-(trifluoromethyl)oxazolidin-3-yl)-2-(trifluoromethyl)benzonitrile] | 7.5 | 14.1 | – |
| CC(=O)Nc1ccc(OC[C@@H]2CN(c3ccc(C#N)c(C(F)(F)F)c3)[C@H](C(F)(F)F)O2)cc1 [Example 30, N-(4-(((2S,5S)-3-(4-cyano-3-(trifluoromethyl)phenyl)-2-(trifluoromethyl)oxazolidin-5-yl)methoxy)phenyl)acetamide] | – | 142 | – |
| N#Cc1ccc(N2C[C@@H](COc3ccc([N+](=O)[O-])c(F)c3)O[C@@H]2C(F)(F)F)cc1C(F)(F)F [Example 31] | 17.7 | 14.1 | – |
| CNC(=O)c1ccc(OC[C@@H]2CN(c3ccc(C#N)c(C(F)(F)F)c3)[C@@H](C(F)(F)F)O2)cc1 [Example 32, 4-(((2R,5S)-3-(4-cyano-3-(trifluoromethyl)phenyl)-2-(trifluoromethyl)oxazolidin-5-yl)methoxy)-N-methylbenzamide] | – | 32.7 | – |
| N#Cc1ccc(N2C[C@@H](COc3ccc([N+](=O)[O-])cc3F)O[C@@H]2C(F)(F)F)cc1C(F)(F)F [Example 33, 4-((2R,5S)-5-((2-fluoro-4-nitrophenoxy)methyl)-2-(trifluoromethyl)oxazolidin-3-yl)-2-(trifluoromethyl)benzonitrile] | 10.7 | 10.4 | – |
| CN(C)C(=O)c1ccc(OC[C@@H]2CN(c3ccc(C#N)c(C(F)(F)F)c3)[C@@H](C(F)(F)F)O2)cc1 [Example 34, 4-(((2R,5S)-3-(4-cyano-3-(trifluoromethyl)phenyl)-2-(trifluoromethyl)oxazolidin-5-yl)methoxy)-N,N-dimethylbenzamide] | 111 | – | 24.1 |
| N#Cc1ccc(N2C[C@@H](COc3ccc([N+](=O)[O-])cc3)O[C@H]2C(F)(F)F)cc1C(F)(F)F [Example 35, 4-((2S,5S)-5-((4-nitrophenoxy)methyl)-2-(trifluoromethyl)oxazolidin-3-yl)-2-(trifluoromethyl)benzonitrile] | – | 185 | – |
| N#Cc1ccc(N2C[C@@H](COc3ccc(Cl)cc3)O[C@@H]2C(F)(F)F)cc1C(F)(F)F [Example 56, 4-((2R,5S)-5-((4-chlorophenoxy)methyl)-2-(trifluoromethyl)oxazolidin-3-yl)-2-(trifluoromethyl)benzonitrile] | 75.1 | 75.1 | – |
